Data from publication PMC6451126 (2019).

Tests used:
[1] = tested on: KRAS (DNA, G4) AGGGCGGTGTGGGAAGAGGGAAGAGGGGGAGG; experiment: RLS intensity ratio; Job plot; settings: 50 mM KCl; 20 mM Tris-HCl pH 7.4, 1 mM Na2EDTA, 5 µM porphyrin
[2] = tested on: Hum24 (DNA, G4) TTAGGGTTAGGGTTAGGGTTAGGG; experiment: RLS intensity ratio; settings: 50 mM KCl; 20 mM Tris-HCl pH 7.0, 1 mM Na2EDTA, 5 µM porphyrin, 10 µM DNA
[3] = tested on: CatG4 (DNA, G4) TGGGTAGGGCGGGTTGGG; experiment: RLS intensity ratio; settings: 50 mM KCl; 20 mM Tris-HCl pH 7.0, 1 mM Na2EDTA, 5 µM porphyrin, 10 µM DNA
[4] = tested on: KRAS (DNA, G4) AGGGCGGTGTGGGAAGAGGGAAGAGGGGGAGG; experiment: RLS ratio I702/I652, absorption, fluorescence; Job plot; settings: 50 mM KCl; 20 mM Tris-HCl pH 7.0, 1 mM Na2EDTA, 5 µM porphyrin
[5] = tested on: AS1411 (DNA, G4) GGTGGTGGTGGTTGTGGTGGTGGTGG; experiment: RLS intensity ratio; settings: 50 mM KCl; 20 mM Tris-HCl pH 7.0, 1 mM Na2EDTA, 5 µM porphyrin, 10 µM DNA
[6] = tested on: Oxy28 (DNA, G4) GGGGTTTTGGGGTTTTGGGGTTTTGGGG; experiment: RLS intensity ratio; settings: 50 mM KCl; 20 mM Tris-HCl pH 7.0, 1 mM Na2EDTA, 5 µM porphyrin, 10 µM DNA
[7] = tested on: C-MYC (DNA, G4) TGAGGGTGGGGAGGGTGGGGAA; experiment: RLS intensity ratio; settings: 50 mM KCl; 20 mM Tris-HCl pH 7.0, 1 mM Na2EDTA, 5 µM porphyrin, 10 µM DNA

| binding [1] | binding [2] | binding [3] | binding [4] | binding [5] | binding [6] | binding [7] | SMILES |
| --- | --- | --- | --- | --- | --- | --- | --- |
| yes |  |  |  |  |  |  | C[N+]1(CCO)CC[N+](C)(CCOc2ccc(-c3c4nc(c(-c5ccc(OCC[N+]6(C)CC[N+](C)(CCO)CC6)cc5)c5ccc([nH]5)c(-c5ccc(OCC[N+]6(C)CC[N+](C)(CCO)CC6)cc5)c5nc(c(-c6ccc(OCC[N+]7(C)CC[N+](C)(CCO)CC7)cc6)c6ccc3[nH]6)C=C5)C=C4)cc2)CC1 (stereo not shown) |
|  | yes | yes | yes | yes | yes | yes | C[N+]1(CCOc2ccc(-c3c4nc(c(-c5ccc(OCC[N+]6(C)CCCCC6)cc5)c5ccc([nH]5)c(-c5ccc(OCC[N+]6(C)CCCCC6)cc5)c5nc(c(-c6ccc(OCC[N+]7(C)CCCCC7)cc6)c6ccc3[nH]6)C=C5)C=C4)cc2)CCCCC1 |
